Read-outs that look alike come from different tables or passages of the source. One block for each compound: values may come before it.
What was measured:
[1] = target: human recombinant CyPA (Homo sapiens, UniProt P62937); test: Semiautomated microtiter plate assay of rotamase activity inhibition; assay type: biochemical; conditions: 30 minute preincubation at 4° C., read-out: IC50 (rotamase inhibition, modified plate reader assay)
Protocol: Semiautomated Assay of Rotamase Activity Inhibition: Rotamase inhibition was determined using a semiautomated microtiter plate assay modification of the above described assay [see Küillertz et al., Clin. Chem. 44, 502-508 (1998)]. All dilutions of CyPA, peptide substrate, and chymotrypsin were made in 35 mM ice-cold HEPES buffer. Fifty μL of CyPA solution were added to 50 μL of peptide substrate solution (Phe-Pro-Phe p-nitroanilide, 0.16 mg/ml) in a glass microtiter well plate (the concentration of human recombinant CyP being adjusted so that the reaction rate is increased by a factor of 3 as compared to an uncatalyzed control reaction wherein the peptide substrate is degraded by chymotrypsin alone, in the absence of CyPA and test compound). Using a Beckman Multimek™ 96 automated 96-channel pipettor, 5 μL of test compound solution, or a DMSO blank, were added to each well for a 30 minute preincubation at 4° C. One hundred μL of chymotrypsin solution (1 mg/mL) were added to each well and the absorbance at 390 nm versus time was monitored for 9-10 minutes using a BioRad Ultramark plate reader maintained at 4° C. and the rate constants were determined from the absorbance versus time data files. The cyclophilin utilized was a human recombinant CyPA [Yoo et al., J. Mol. Biol., 269 (1997) 780-95].
IC50 values which were obtained for representative compounds using this modified plate reader assay of rotamase inhibition are given in the following Table II: […]

[2] = target: T1, recombinant rat CyPA-GST fusion protein (Rattus norvegicus, UniProt P10111); test: Rotamase (prolyl peptidyl cis-trans isomerase) inhibition, chymotrypsin-coupled cuvette assay; assay type: biochemical
T1 construct: made in house; host or cells: E. coli BL21
Source text: A number of substrates for rotamase are known in the art or can be derived from those known. Typically, the substrate contacts a sample containing a protein with rotamase activity and the conversion of the substrate is detected after a period of time. The method for detecting conversion of the substrate will vary with the particular substrate chosen. One method has been termed the Ki test (See Harding, et al., Nature, 341:758-760 (1989). The cis-trans isomerization of an alanine-proline bond in a model substrate, N-succinyl-Ala-Ala-Pro-Phe-p-nitroanilide, is monitored spectrophotometrically in a chymotrypsin-coupled assay. The action of chymotrypsin releases p-nitroaniline from only the trans form of the substrate. The amount of p-nitroaniline can be monitored in a spectrophotometer, for example. Other methods of detecting the presence of p-nitroaniline can also be used. The inhibition of this reaction caused by different concentrations of inhibitor is determined and the data are analyzed as a change in first-order rate constant as a function of inhibitor concentration, which yields the Ki value.
The following were added to a plastic cuvette: […] of ice cold assay buffer (25 mM HEPES, pH 7.8, 100 mM NaCl), 10 μL of CyP A (2.5 μM in 10 mM Tris-Cl pH 7.5, 100 mM NaCl, 1 mM dithiothreitol), 25 μL of chymotrypsin (50 mg/ml in 1 mM HCl), and 10 μL of test compound, at various concentrations, in dimethyl sulfoxide. The reaction was initiated by the addition of 5 μL of substrate (succinyl-Ala-Phe-Pro-Phe-para-nitroanilide, 5 mg/mL in 470 mM LiCl in trifluoroethanol). The absorbance at 390 nm versus time was monitored for 90 seconds using a spectrophotometer and the rate constants were determined from the absorbance versus time data files.
The IC50 values that were obtained for representative compounds in the following Table I refer to the concentration that inhibits 50% of the rotamase activity in a sample. […] The Cyclophilin utilized was a recombinant rat CyPA-GST fusion protein: CypA was amplified from rat brain cDNA using standard PCR methods, primed with the following sequences: 5′ CCCCCCGGGAGTCAACCCCACCGTGTTCTTCGA 3′ and 5′ GGAGATCTAGAGTTGTCCACAGTCGGAGATGGT 3′. The resulting fragment (573 base pairs) was cloned into pCRII and amplified. The CyP sequence was cut out with Smal and EcoRl and cloned into the Smal/EcoRl sites in pGEX2TK (Pharmacia). This plasmid was transformed into BL21 E. coli cells for expression of the GST-CyPA fusion protein.

[3] = recombinant rat CyPA-GST fusion protein, values without asterisk, read-out: IC50 (rotamase activity)

Chain of human recombinant CyPA (P62937 whole entry): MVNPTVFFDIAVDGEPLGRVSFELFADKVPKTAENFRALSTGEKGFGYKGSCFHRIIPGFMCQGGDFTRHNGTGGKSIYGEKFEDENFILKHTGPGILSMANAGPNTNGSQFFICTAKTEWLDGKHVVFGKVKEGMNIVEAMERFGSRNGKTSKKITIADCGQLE
T1 sequence (P10111 2-164): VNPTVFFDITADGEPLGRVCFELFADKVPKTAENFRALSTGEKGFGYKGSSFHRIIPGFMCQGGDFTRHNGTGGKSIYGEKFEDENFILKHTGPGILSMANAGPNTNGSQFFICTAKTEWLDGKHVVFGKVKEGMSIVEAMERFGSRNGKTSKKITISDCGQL

Compound: bis[(3,5-dichlorophenyl)sulfonyl](3-{[(naphthylamino) thioxomethyl]amino}phenyl)amine [Compound 5]
IC50 [2, 3]: 0.783 µM

Compound: Cc1ccc(S(=O)(=O)N(c2cccc(NC(=O)Nc3cc(Cl)cc(Cl)c3)c2)S(=O)(=O)c2ccc(C)cc2)cc1 [Compound 2]
IC50 [2]: 0.149 µM

Compound: FC(F)(F)c1cc(NC(=S)NC2CCCCC2NC(=S)Nc2cc(C(F)(F)F)cc(C(F)(F)F)c2)cc(C(F)(F)F)c1 (stereo not shown) [Compound 12, {[3,5-bis(trifluoromethyl)phenyl]amino}({2-[({[3,5-bis(trifluoromethyl)phenyl]amino}thioxomethyl)amino]cyclohexyl}amino)methane-1-thione]
IC50 [2, 3]: 0.767 µM

Compound: O=C(Nc1cc(Cl)cc(Cl)c1)Nc1cccc(N(S(=O)(=O)c2cc(Cl)cc(Cl)c2)S(=O)(=O)c2cc(Cl)cc(Cl)c2)c1 [Compound 7]
IC50 [2]: 1.22 µM

Compound: COc1ccc(S(=O)(=O)N(c2cccc(NC(=O)Nc3cc(Cl)cc(Cl)c3)c2)S(=O)(=O)c2ccc(C)cc2)cc1 [Compound 1, [(3,5-dichlorophenyl)amino]-N-(3-{[(4-methoxylihenyl)sulfonyl][(4-methylphenyl)sulfonyl]amino}phenyl)formamide]
IC50 [2, 3]: 0.162 µM

Compound: O=C(Nc1cc(Cl)cc(Cl)c1)Nc1ccccc1NC(=O)Nc1cc(Cl)cc(Cl)c1 [Compound 27]
IC50 [2]: 0.667 µM

Compound: S=C(Nc1ccc(Cl)c(Cl)c1)NC1CCCCC1NC(=S)Nc1ccc(Cl)c(Cl)c1 (stereo not shown) [Compound 14, [(3,4-dichlorophenyl)amino]{[2-({[(3,4-dichlorophenyl)amino]thioxomethyl}amino)cyclohexyl]amino}methane-1-thione]
IC50 [2, 3]: 0.786 µM

Compound: S=C(Nc1cc(Cl)cc(Cl)c1)NC1CCCCC1NC(=S)Nc1cc(Cl)cc(Cl)c1 (stereo not shown) [Compound 15, [(3,5-dichlorophenyl)amino]{[2-({[(3,5-dichlorophenyl)amino]thioxomethyl}amino)cyclohexyl]amino}methane-1-thione]
IC50 [2, 3]: 0.61 µM

Compound: COc1ccc(S(=O)(=O)N(c2cccc(N(S(=O)(=O)c3cc(Cl)cc(Cl)c3)S(=O)(=O)c3cc(Cl)cc(Cl)c3)c2)S(=O)(=O)c2ccc(OC)cc2)cc1 [Compound 10, (3-{Bis[(3,5-dichlorolphenyl)sulfonyl]amino}phenyl)bis[(4-methoxyphenyl)sulfonyl]amine]
IC50 [2, 3]: 0.732 µM

Compound: O=C(Nc1cc(Cl)cc(Cl)c1)[C@@H]1C=C[C@H](NC(=S)Nc2cc(Cl)cc(Cl)c2)C1 [Compound 18, (1S,3R)-N-(3,5-dichlorophenyl)[4-({[(3,5-dichlorolphenyl)amino]thioxomethyl}amino)cyclopent-2-enyl]formamide]
IC50 [2, 3]: 0.901 µM

Compound: O=C(Nc1cccc(N(S(=O)(=O)c2cc(Cl)cc(Cl)c2)S(=O)(=O)c2cc(Cl)cc(Cl)c2)c1)Nc1c(Cl)cccc1Cl [Compound 6]
IC50 [2]: 0.99 µM

Compound: COc1ccc(S(=O)(=O)N(c2cccc(NC(=O)c3cc(Cl)cc(Cl)c3)c2)S(=O)(=O)c2ccc(C)cc2)cc1 [Compound 3]
IC50 [2]: 0.955 µM

Compound: O=C(Nc1cccc(Oc2ccccc2)c1)Nc1cc(C(F)(F)F)cc(C(F)(F)F)c1 [Compound 26]
IC50 [2]: 1.56 µM

Compound: O=C(Nc1ccccc1NC(=O)c1ccc(I)cc1)c1ccc(I)cc1 [Compound 29]
IC50 [2]: 0.94 µM

Compound: O=C(Nc1cc(Cl)cc(Cl)c1)[C@@H]1CC[C@H](NC(=S)Nc2cc(Cl)cc(Cl)c2)C1 [Compound 17]
IC50 [2]: 0.854 µM

Compound: COc1ccc(S(=O)(=O)N(c2cccc(N(S(=O)(=O)c3cc(Cl)cc(Cl)c3)S(=O)(=O)c3cc(Cl)cc(Cl)c3)c2)S(=O)(=O)c2ccc(C)cc2)cc1 [Compound 4, (3-{bis[(3,5-dichlorophenyl)sulfonyl]amino}phenyl)[(4-methoxy-phenyl)sulfonyl][(4-methylphenyl)sulfonyl]amine]
IC50 [2, 3]: 0.995 µM

Compound: O=C(Nc1cc(Cl)cc(Cl)c1)N[C@H]1CC[C@@H](NC(=O)Nc2cc(Cl)cc(Cl)c2)CC1 [Compound 16, cis-[(3,5-Dichlorophenyl)amino]-N-(4-{[(3,5-dichlorolphenyl)amino]carbonylamino}cyclohexyl)formamide]
IC50 [2, 3]: 1.53 µM

Second part, the compound after the results:

IC50 [1]: 5.19 µM
Compound: O=C(CCCCc1ccccc1)Nc1cccc(C(=O)NNC(=S)NC23CC4CC(CC(C4)C2)C3)c1 [Compound 41, 1-[(6-Phenyl-1-aza-2-oxo)hexyl]-3-{[(adamant-1-yl)-1-oxo-2,3,5-triaza-4-thio]pentyl}-benzene]

IC50 [1]: 0.672 µM
Compound: O=C(CCCCc1cccs1)Nc1cccc(C(=O)NNC(=S)Nc2ccc(Cl)c(Cl)c2)c1 [Compound 38, 1-{[1-Aza-2-oxo-6-(thien-2-yl)]hexyl}-3-{[5-(3,4-dichlorophenyl)-1-oxo-2,3,5-triaza-4-thio]pentyl}benzene]

IC50 [1]: 0.154 µM
Compound: O=C(CCCCCc1cccc(C(F)(F)F)c1)Nc1cccc(C(=O)NNC(=S)Nc2ccc(Cl)c(Cl)c2)c1 [Compound 32, 1-{[1-Aza-2-oxo-7-(3-trifluoromethylphenyl)]heytyl}-3-{[5-(3 4-dichlorophenyl)-1-oxo-2,3,5-triaza-4-thio]pentyl}benzene]

IC50 [2, 3]: 1.1 µM
Compound: S=C(Nc1cc(Cl)cc(Cl)c1)Nc1ccccc1NC(=S)Nc1cc(Cl)cc(Cl)c1 [Compound 28, [(3,5-dichlorophenyl)amino]{[2-({[(3,5-dichlorophenyl)amino]thioxomethyl}amino)phenyl]amino}methane-1-thione]

IC50 [1]: 4.64 µM
Compound: O=C(CCCCc1ccccc1)Nc1cccc(S(=O)(=O)NC(=S)Nc2ccc(Cl)c(Cl)c2)c1 [Compound 34A]

IC50 [1]: 6.09 µM
Compound: O=C(CCCCc1ccccc1)Nc1cccc(NC(=O)CC(=O)Nc2ccc(Cl)c(Cl)c2)c1 [Compound 42, 1-[(6-Phenyl-1-aza-2-oxo)hexyl]-3-{[5-(3,4-dichlorophenyl)-1,5-diaza-2,4-oxo]pentyl}-benzene]

IC50 [1]: 2.8 µM
Compound: O=C(CCCCc1ccccc1)Nc1cccc(-c2nnc(Nc3ccc(Cl)c(Cl)c3)s2)c1 [Compound 40A, 5-Phenyl-pentanoic acid {3-[5-(3,4-dichloro-phenylamino)-[1,3,4]thiadiazol-2-yl]-phenyl}-amide]

IC50 [1]: 1.57 µM
Compound: O=C(CCCCc1ccccc1)Nc1ccc(C(=O)NNC(=S)Nc2ccc(Cl)c(Cl)c2)cc1 [Compound 43, 1-{4-[(5-Phenyl)pentanoylamino]benzoyl}-4-(3,4-dichlorophenyl)thiosemicarbazide]

IC50 [1]: 1.41 µM
Compound: O=C(CCCCc1ccccc1)Nc1cccc(/C=N/NC(=S)Nc2ccc(Cl)c(Cl)c2)c1 [Compound 39, N-{3-[(1E)-2-aza-2-({[(3,4-dichlorophenyl)amino]thioxomethyl}amino)vinyl]phenyl}-5-phenylpentanamide]

IC50 [2, 3]: 0.909 µM
Compound: O=C(COc1cccc(NC(=O)c2cc(Cl)cc(Cl)c2)c1)Nc1cc(Cl)cc(Cl)c1 [Compound 24, N-(3,5-dichlorophenyl)-2-{3-[(3,5-dichlorolphenyl)carbonylamino]phenoxy}ethanamide]

IC50 [2, 3]: 0.754 µM
Compound: O=C(Nc1cc(Cl)cc(Cl)c1)[C@H]1CC[C@@H](NC(=S)Nc2cc(Cl)cc(Cl)c2)C1 [Compound 19]

IC50 [2, 3]: 0.188 µM
Compound: S=C(Nc1cc(Cl)cc(Cl)c1)Nc1cccc(C=C(c2ccc(Cl)cc2)c2ccc(Cl)cc2)c1 [Compound 20]

IC50 [2, 3]: 0.895 µM
Compound: O=C(NNC(=S)Nc1cc(Cl)cc(Cl)c1)c1cccc(OCc2cc(C(F)(F)F)cc(C(F)(F)F)c2)c1 [Compound 23]

IC50 [2, 3]: 0.964 µM
Compound: O=C(Nc1cccc(OS(=O)(=O)c2c(F)c(F)c(F)c(F)c2F)c1)c1cc(Cl)cc(Cl)c1 [Compound 25, 3-[(3,5-dichlorophenyl)carbonylamino]phenyl 2,3,4,5,6-penta-fluorobenzenesulfonate]
